The values below come from patent US11584728B2, “Compositions and methods for the prevention and/or treatment of mitochondrial disease, including Friedreich's ataxia” (STEALTH BIOTHERAPEUTICS INC., priority 2019, dated 2023).

Each structure is given as a SMILES string. Like-named read-outs stand apart in the source and are kept apart here. Some results are limits rather than exact numbers.

Assay [1] concerns frataxin deficient fibroblasts (GM03665). The assay can be described thus: Frataxin Deficient Fibroblast Viability Assay (BSO Assay). Conditions: Homo sapiens, 48 h.
Another assay has as its system GM03665 cells. The assay can be described thus: RSL3 Toxicity Assay (RSL3 Assay). Format: cell-based, human. Conditions: Homo sapiens, GM03665 cells, RSL3 2 μM, 24 hours, MTT. Here is the method: Example 19: RSL3 Toxicity Assay (RSL3 Assay)
In brief, GM03665 cells (Coriell Institute) were seeded in 96-well plates (Sarstedt) in DMEM cell culture media containing 10% Fetal Bovine serum and 1% Penicillin-Streptomycin (Pen-Strep) antibiotic mix at the amount of 2×10^4/mL (100 μL or 2×10^3 cells per well). Cells were left to rest overnight at 37° C. in a humidified atmosphere with 5% CO2 to allow attachment of the cells to the culture plate. Test compounds were prepared as DMSO stocks (10 mM) and were serially diluted in cell culture media to obtain 2× working solutions. Cell media was discarded and replaced by 50 μL of test compound solutions or cell media with vehicle for control wells. Within 15 minutes, 2× working solution (4 μM) of 1S,3R-RSL3 (CAS #1219810-16-8, Sigma-Aldrich) (diluted from 5 mM DMSO stock in cell culture media) was added. Final reaction volume was 100 μL and final DMSO concentration in reaction was kept below 0.2% (v/v) and equal in all wells. Final RSL3 concentration was 2 μM and test compound final concentrations in reaction were up to 1000 nM. After 24 hours of incubation cell viability was assessed by MTT test. MTT (Sigma-Aldrich) solution 1 mg/mL in 1×PBS (pH=7,4) was prepared 1 hour before the assay and filtered through Filtropur S 0.2 filters (Sarstedt). Cell media with test compounds was discarded and 100 μL of MTT solution was added to cells. The plates were incubated for 2 hours at +37° C. Thereafter, the MTT solution was removed and 100 μL of isopropanol was added to dissolve sediment. Absorption at 570 and 650 nm was measured using Hidex Sense microplate reader.

In assay [2] the test system is HepG2 human hepatocarcinoma cells. The experiment in a line: Rotenone ATP-Assay (Complex I by-pass). To be noted: for EC50: Homo sapiens, 1 h, HepG2 cells, 50 micromolar rotenone, 60 minutes; for Activity in both the BSO Assay and the Rotenone ATP Assay (in words): circumvent BSO induced cell death and restore ATP production when Complex I is inhibited. The class given is cell-based. As to the method: Example 18: Rotenone ATP-Assay
Introduction: • This assay has been adapted from Haefeli R H, Erb M, Gemperli A C, Robay D, Courdier Fruh I, et al. (2011) NQO1-Dependent Redox Cycling of Idebenone: Effects on Cellular Redox Potential and Energy Levels. PLoS ONE 6(3): e17963. HepG2 human hepatocarcinoma cells were co-incubated with the electron transport chain Complex I toxin rotenone +/−compounds of interest and the corresponding effect on ATP synthesis was measured with a bioluminescent substrate.
Assay Experimental: • In brief, HepG2 cells were plated at 25,000 cells per well in low glucose (1 gram/Liter) DMEM medium +10% fetal calf serum and incubated for 24 hours. The following day, the media was decanted and subsequently replaced with glucose free/serum free DMEM which has been supplemented with 50 micromolar rotenone and compound of interest. Serial dilutions of compound were prepared in 3× dilutions beginning at 25 micromolar. The cells were incubated for 60 minutes in a humidified tissue culture incubator. Following incubation, ATP levels were quantified via bioluminescent assay (Promega […]) and readings were captured on a standard microplate reader.
Calculations: • ATP bioluminescence is plotted versus the log of compound of interest and data were used to generate EC50 values. Curve fitting was performed using a sigmoidal dose response curve fit function (GraphPad Prism software).
Robustness of curve fit was assessed as a quality control measure, with an R squared value of at least 0.80 being required for a successful curve fit. Compounds of interest showing an increase in ATP bioluminescence relative to vehicle control were verified in an independent biological replicate of n=3 technical replicates per dose.
Discussion: • This assay is a direct measure of the ability of compounds of interest to restore ATP production under conditions of inhibition of Complex I of the mitochondrial electron transport chain. As the majority of ATP produced via the electron transport chain is thought to derive from Complex I activity, significant impairment in Complex I function has dire biological consequences. Of note, Complex I mutations are thought to drive pathophysiology in multiple mitochondrial diseases, including Leigh syndrome and Leber's Hereditary Optic Neuropathy (LHON), while diminished Complex I activity and the resultant attenuation of ATP production has been shown in neurodegenerative diseases, including Friedreich's Ataxia, Parkinson's Disease and Huntington's Disease.

The test system of another assay is Nrf-2. The experiment in a line: Nrf-2 Activation Assay (Nrf-2 Assay). The class given is cell-based, human. To be noted: 1 μM, 24 hours; for Nrf-2 Assay: Table 7, GM03665 fibroblasts, qPCR of Nrf-2 responsive genes. As to the method: Example 21: Nrf-2 Activation Assay (Nrf-2 Assay)
This assay was developed internally and was designed to determine if the novel test compounds disclosed herein active Nrf-2 and thereby promote resolution of inflammation by the mechanism believed to be responsible for the activity of omaveloxolone.
Briefly, GM03665 Friedreich Ataxia patient fibroblasts were grown in 12 Well Plates (TC Cell+F) (Sarstedt, Nümbrecht Germany), at a density of 12×10^4 cells/per well in DMEM/F12 (Gibco, ThermoFisher Scientific, Waltham, Mass., USA) cell media supplemented with 10% FBS and 1% Pen/Strep. Cells were left to rest overnight at 37° C. in a humidified atmosphere with 5% CO2 to allow attachment of the cells to the culture plate. Before continuing assay visual inspection of each well was done by light microscopy to detect any possible bacterial and fungal contamination. […] After incubation, cell media was removed and total RNA from the cells was isolated using E.Z.N.A.® Total RNA Kit I (Omega Bio-tek, Norcross, Ga., USA) spin columns, and first-strand cDNA synthesis was carried out using a High Capacity cDNA Reverse Transcription Kit (Applied Biosystems™, Foster City, Calif.) following the manufacturer's instructions. qPCR analysis of gene expression was performed by mixing SYBR® Green Master Mix (Applied Biosystems™) with synthesized cDNA and forward and reverse primers. […] (60 cycles), and 95° C. for 60 seconds, followed by melt curve analysis at 72-95° C., 0.3° C./sec. The relative expression levels for each gene were calculated with the ΔΔCt method and normalized to the expression of REEP5 and SNRPD3 genes.
A general note: Real-time PCR tracks product formation cycle by cycle.

[3] abbreviates: Table 3, mean of at least three measurements, nM printed in Table 7, read-out: RSL3 Assay EC50, Mean.
[4] abbreviates: Table 7, read-out: RSL3 Assay EC50.
The mark [5] stands for this setting: ATP bioluminescence, read-out: EC50 Rotenone ATP Assay.
[6] abbreviates: Table 7, read-out: Rotenone ATP Assay EC50.

For the molecule `C/C(=C\CC[C@]1(C)CCc2c(C)c(O)c(C)c(C)c2O1)CCC=C(F)F` [Compound 56, (R,E)-2-(8,8-difluoro-4-methylocta-3,7-dien-1-yl)-2,5,7,8-tetramethylchroman-6-ol], the EC50 in assay [1] (read-out: EC50 (nM) BSO Assay) is below 100 nM.

Consider `CC1=C(C)C(=O)C(CC[C@](C)(O)CCCCCCCCC(F)(F)F)=C(C)C1=O` [Compound N, (R)-2,3,5-trimethyl-6-(12,12,12-trifluoro-3-hydroxy-3-methyldodecyl)cyclo-hexa-2,5-diene-1,4-dione], for which the EC50 in assay [1] (read-out: BSO Assay) was 144 nM; in assay [1] (read-out: EC50 (nM) BSO Assay) it was 100 to 1000 nM; with GM03665 cells (setting [3]), 93 nM; with GM03665 cells (setting [4]) it was 93 nM; in assay [2] (setting [5]), 1000 to 3000 nM; in assay [2] (setting [6]), 2360 nM. In assay [2], the “Activity in both the BSO Assay and the Rotenone ATP Assay (in words)” value is listed as “possess both activities”. Further, the “Nrf-2 Assay” value with Nrf-2 was “Inactive”.

Regarding `CC1=C(C)C(=O)C(CC[C@](C)(O)CC/C=C(\C)CCC=C(F)F)=C(C)C1=O` [Compound H, (R,E)-2-(11,11-difluoro-3-hydroxy-3,7-dimethylundeca-6,10-dien-1-yl)-3,5,6-trimethylcyclohexa-2,5-diene-1,4-dione], the EC50 in assay [1] (read-out: BSO Assay) was 164 nM; in assay [1] (read-out: EC50 (nM) BSO Assay), 100 to 1000 nM; with GM03665 cells (setting [3]) it was 179 nM; with GM03665 cells (setting [4]), 179 nM; in assay [2] (setting [5]), below 1000 nM; in assay [2] (setting [6]) it was 1140 nM. Further, the “Nrf-2 Assay” value in the assay with Nrf-2 is recorded as “Inactive”.

In the case of `Cc1c(C)c2c(c(C)c1O)CC[C@@](C)(CCC=C(F)F)O2` [Compound 67, (R)-2-(4,4-difluorobut-3-en-1-yl)-2,5,7,8-tetramethylchroman-6-ol], in assay [1] (read-out: EC50 (nM) BSO Assay), the EC50 was below 100 nM. Besides, in assay [2], the “Activity in both the BSO Assay and the Rotenone ATP Assay (in words)” value is on record as “possess both activities”.

For the molecule `CC1(C)CC[C@]2(NC(=O)C(C)(F)F)CC[C@]3(C)[C@H](C(=O)C=C4[C@@]5(C)C=C(C#N)C(=O)C(C)(C)[C@@H]5CC[C@]43C)[C@@H]2C1` [Omaveloxolone, reference compound], the EC50 is 48.6 nM in assay [1] (read-out: BSO Assay), below 100 nM in assay [1] (read-out: EC50 (nM) BSO Assay) and above 3000 nM in assay [2] (setting [5]). The “Activation of Nrf-2 responsive genes (in words, FIG. 7)” value with Nrf-2 was “positive”. Further, in the assay with Nrf-2, the “Nrf-2 Assay” value is “Active”.

In the case of `CC(=CCC/C(C)=C/CC/C(C)=C/CC[C@@](C)(O)CCC1=C(C)C(=O)C(C)=C(C)C1=O)CF` [Compound B, 2-((R,6E,10E)-16-fluoro-3-hydroxy-3,7,11,15-tetramethylhexadeca-6,10,14-trien-1-yl)-3,5,6-trimethylcyclohexa-2,5-diene-1,4-dione], the EC50 in assay [1] (read-out: EC50 (nM) BSO Assay) was below 100 nM.

For the molecule `CC1=C(C)C(=O)C(CC[C@](C)(O)CC/C=C(\C)CC/C=C(\C)CCC=C2CCCCC2)=C(C)C1=O` [Compound G, 2-((R,6E,10E)-14-cyclohexylidene-3-hydroxy-3,7,11-trimethyltetradeca-6,10-dien-1-yl)-3,5,6-trimethylcyclohexa-2,5-diene-1,4-dione], the EC50 in assay [1] (read-out: EC50 (nM) BSO Assay) was below 100 nM.

As for `CC1=C(C)C(=O)C(CC[C@](C)(O)CC/C=C(\C)CC/C=C(\C)CCC=C2CCCC2)=C(C)C1=O` [Compound F, 2-((R,6E,10E)-14-cyclopentylidene-3-hydroxy-3,7,11-trimethyltetradeca-6,10-dien-1-yl)-3,5,6-trimethylcyclohexa-2,5-diene-1,4-dione], the EC50 in assay [1] (read-out: EC50 (nM) BSO Assay) is below 100 nM.

As to `CC1=C(C)C(=O)C(CC[C@](C)(O)CC/C=C(\C)CC/C=C(\C)CCC=C2CCC2)=C(C)C1=O` [Compound D, 2-((R,6E,10E)-14-cyclobutylidene-3-hydroxy-3,7,11-trimethyltetradeca-6,10-dien-1-yl)-3,5,6-trimethylcyclohexa-2,5-diene-1,4-dione], the figures for the EC50 in assay [1] (read-out: EC50 (nM) BSO Assay) and in assay [2] (setting [5]) were below 100 nM and above 3000 nM, respectively.

Consider `CC1=C(C)C(=O)C(CC[C@](C)(O)CC/C=C(\C)CC/C=C(\C)CCC=C(CF)CF)=C(C)C1=O` [Compound A, 2-((R,6E,10E)-16-fluoro-15-(fluoromethyl)-3-hydroxy-3,7,11-trimethylhexadeca-6,10,14-trien-1-yl)-3,5,6-trimethylcyclohexa-2,5-diene-1,4-dione], for which the EC50 in assay [1] (read-out: EC50 (nM) BSO Assay) is below 100 nM.

Turning to `CC1=C(C)C(=O)C(CC[C@@](C)(O)CC/C=C(\C)CC/C=C(\C)CCC=C(F)F)=C(C)C1=O` [Compound J, 2-((S,6E,10E)-15,15-difluoro-3-hydroxy-3,7,11-trimethylpentadeca-6,10,14-trien-1-yl)-3,5,6-trimethylcyclohexa-2,5-diene-1,4-dione], the EC50 in assay [1] (read-out: EC50 (nM) BSO Assay) is below 100 nM.

On to `COC1=C(OC)C(=O)C(CCCCCCCCCCO)=C(C)C1=O` [Idebenone, reference compound], for which the EC50 in assay [1] (read-out: BSO Assay) is above 1000 nM; in assay [2] (setting [5]), 1000 to 3000 nM; in assay [2] (setting [6]), 1560 nM.

Regarding `CC1=C(C)C(=O)C(CC[C@](C)(O)CCC=C(F)F)=C(C)C1=O` [Compound I, (R)-2-(7,7-difluoro-3-hydroxy-3-methylhept-6-en-1-yl)-3,5,6-trimethylcyclo-hexa-2,5-diene-1,4-dione], the EC50 was 100 to 1000 nM in assay [1] (read-out: EC50 (nM) BSO Assay) and above 3000 nM in assay [2] (setting [5]).

For `CC1=C(C)C(=O)C(CC[C@](C)(O)CC/C=C(\C)CC/C=C(\C)CCC=C(F)F)=C(C)C1=O` [Compound C, 2-((R,6E,10E)-15,15-difluoro-3-hydroxy-3,7,11-trimethylpentadeca-6,10,14-trien-1-yl)-3,5,6-trimethylcyclohexa-2,5-diene-1,4-dione], in assay [1] (read-out: EC50 (nM) BSO Assay), the EC50 is below 100 nM.

Take `CC1=C(C)C(=O)C(CC[C@@](C)(O)CCC=C(F)F)=C(C)C1=O` [Compound K, (S)-2-(7,7-difluoro-3-hydroxy-3-methylhept-6-en-1-yl)-3,5,6-trimethylcyclo-hexa-2,5-diene-1,4-dione]: the EC50 in assay [1] (read-out: EC50 (nM) BSO Assay) is below 100 nM; in assay [2] (setting [5]) it was above 3000 nM.
